# Data: patent US20230348376A1 (TEIJIN PHARMA LIMITED, priority 2020, published 2023)
# How the values were obtained:
# [1] = Evaluation of brain penetration in mice (blood and brain concentration at brain Cmax); format: in vivo, mouse; details: 1 mg/kg single oral dose, C57BL/6J mice; for Concentration in blood (mean ± SD) at brain Cmax / Concentration in brain (mean ± SD) at brain Cmax: n=3; for Kp: male, C57BL/6J, mouse, brain/plasma, po, 1 mg/kg, read-out: Concentration in brain/in blood ratio at brain Cmax
# Protocol: The administration solution was administered orally to C57BL/6J mice (8 weeks old, male, n=3) at a single dose (1 mg/kg). Mice were euthanized at 6 points of 0.25, 0.5, 1, 2, 4, and 8 hours after administration, and plasma and brain sampling were performed. After preparing a homogenate from the collected brain using Tissue Lyser II (QIAGEN #85300), acetonitrile was added to the homogenate and the homogenate was centrifuged (12000 rpm, 5 minutes) to extract the administered test compound contained in the brain. Similarly, the plasma was subjected to addition of acetonitrile and centrifugal separation to extract the administered test compound contained in the plasma. Each extracted sample was subjected to measurement of the concentration of administered test compound using LC/MS/MS (SHIMADZU UFLC/MS/MS (8050)).
# Test 2 [0.2 mg/kg Administration Study] […] The administration solution was administered orally to C57BL/6J mice (8 weeks old, male, n=3) at a single dose (0.2 mg/kg). Mice were euthanized at 6 points of 0.25, 0.5, 1, 2, 4, and 8 hours after administration, and plasma and brain sampling were performed. After preparing a homogenate from the collected brain using Tissue Lyser II (QIAGEN #85300), acetonitrile was added to the homogenate and the homogenate was centrifuged (12000 rpm, 5 minutes) to extract the administered compound contained in the brain. Similarly, the plasma was subjected to addition of acetonitrile and centrifugal separation to extract the administered test compound contained in the plasma. Each extracted sample was subjected to measurement of the concentration of administered test compound using LC/MS/MS (SHIMADZU UFLC/MS/MS (8050)).
# human VDR = biological target: T1, human VDR (Homo sapiens, UniProt P11473); assay: Evaluation of VDR transcription activity in human osteoblasts (HOS cells), luciferase reporter; details: Activity (EC50, VDR transcription activity), HOS cells transfected with human VDR, human RXRα and DR3 luciferase reporter; 21 hours
# T1 sequence (P11473 1-427): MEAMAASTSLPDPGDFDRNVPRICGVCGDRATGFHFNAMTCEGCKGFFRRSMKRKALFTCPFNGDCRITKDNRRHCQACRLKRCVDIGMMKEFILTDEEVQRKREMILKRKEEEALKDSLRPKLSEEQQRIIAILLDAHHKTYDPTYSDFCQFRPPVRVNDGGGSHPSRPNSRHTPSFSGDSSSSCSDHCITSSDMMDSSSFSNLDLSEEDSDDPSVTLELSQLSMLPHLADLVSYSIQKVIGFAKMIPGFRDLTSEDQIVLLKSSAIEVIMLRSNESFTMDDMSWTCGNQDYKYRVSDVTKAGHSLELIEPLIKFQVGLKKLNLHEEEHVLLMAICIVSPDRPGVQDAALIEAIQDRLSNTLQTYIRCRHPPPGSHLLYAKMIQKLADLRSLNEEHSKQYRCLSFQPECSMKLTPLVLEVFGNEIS
# T1 sequence (P19793 1-462 partner): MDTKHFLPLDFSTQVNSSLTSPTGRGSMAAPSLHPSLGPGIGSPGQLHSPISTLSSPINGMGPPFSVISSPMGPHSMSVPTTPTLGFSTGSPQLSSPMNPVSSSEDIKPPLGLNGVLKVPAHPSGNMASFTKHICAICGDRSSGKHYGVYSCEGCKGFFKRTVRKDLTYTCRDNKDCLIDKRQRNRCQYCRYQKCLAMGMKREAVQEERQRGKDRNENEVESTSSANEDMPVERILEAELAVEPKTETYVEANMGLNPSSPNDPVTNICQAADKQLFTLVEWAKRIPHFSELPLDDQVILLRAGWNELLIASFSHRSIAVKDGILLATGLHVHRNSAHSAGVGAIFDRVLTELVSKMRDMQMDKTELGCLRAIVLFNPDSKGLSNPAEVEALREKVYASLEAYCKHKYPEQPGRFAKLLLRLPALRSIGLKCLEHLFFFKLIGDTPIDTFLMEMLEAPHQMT
SMILES,Concentration in blood (mean ± SD) at brain Cmax [1],Concentration in brain (mean ± SD) at brain Cmax [1],Kp [1],EC50 (human VDR)
"C=C1/C(=C\C=C2/CCC[C@]3(C)[C@@H]([C@@H](C)CN4CC[C@H](F)C4)CC[C@@H]23)C[C@@H](O)C[C@@H]1O [Compound B018, (1R,3S,Z)-5-(2-((1R,3aS,7aR,E)-1-((R)-1-((S)-3-fluoropyrrolidin-1-yl)propan-2-yl)-7a-methyloctahydro-4H-inden-4-ylidene)ethylidene)-4-methylenecyclohexane-1,3-diol]",841 ± 197 nM,533 ± 197 pmol/g,0.63,10 to 100 nM
"C[C@H](CN1CCC(O)(C(F)(F)F)C1)[C@H]1CC[C@H]2/C(=C/C=C3C[C@@H](O)C[C@H](O)C3)CCC[C@]12C (single isomer, unassigned) [Compound B045a]",530 ± 97 nM,185 ± 116 pmol/g,0.35,< 1 nM
"C=C1[C@H](O)CC(=C/C=C2\CCC[C@]3(C)[C@@H]([C@H](C)CN4CC[C@H](C(C)(F)F)C4)CC[C@@H]23)C[C@H]1O [Compound B031, (1R,3R)-5-(2-((1R,3aS,7aR,E)-1-((S)-1-((S)-3-(1,1-difluoroethyl)pyrrolidin-1-yl)propan-2-yl)-7a-methyloctahydro-4H-inden-4-ylidene)ethylidene)-2methylenecyclohexane-1,3-diol]",,,,1 to 10 nM
"COC1(C(F)(F)F)CN(CC[C@@H](C)[C@H]2CC[C@H]3/C(=C/C=C4C[C@@H](O)C[C@H](O)C4)CCC[C@]23C)C1 [Compound A027, (1R,3R)-5-(2-((1R,3aS,7aR,E)-1-((R)-4-(3-methoxy-3-(trifluoromethyl)azetidin-1-yl)butan-2-yl)-7a-methyloctahydro-4H-inden-4-ylidene)ethylidene)cyclohexane-1,3-diol]",,,,1 to 10 nM
"C=C1[C@H](O)CC(=C/C=C2\CCC[C@]3(C)[C@@H]([C@H](C)CCN4CC(OC(F)F)C4)CC[C@@H]23)C[C@H]1O [Compound A030, (1R,3R)-5-(2-((1R,3aS,7aR,E)-1-((R)-4-(3-(difluoromethoxy)azetidin-1-yl)butan-2-yl)-7a-methyloctahydro-4H-inden-4-ylidene)ethylidene)-2-methylenecyclohexane-1,3-diol]",,,,10 to 100 nM
"C[C@H](CN1CC[C@H](OC(F)(F)F)C1)[C@H]1CC[C@H]2/C(=C/C=C3CC(O)C[C@H](O)C3)CCC[C@]12C (stereo in doubt) [Compound B069, (1R,3S)-5-(2-((1R,3aS,7aR,E)-7a-methyl-1-((S)-1-((S)-3-(trifluoromethoxy)pyrrolidin-1-yl)propan-2-yl)octahydro-4H-inden-4-ylidene)ethylidene)cyclohexane-1,3-diol]",,,,10 to 100 nM
"C=C1/C(=C\C=C2/CCC[C@]3(C)[C@@H]([C@@H](C)CN4CC[C@@H](C)C4)CC[C@@H]23)C[C@@H](O)C[C@@H]1O [Compound B011, (1R,3S,Z)-5-(2-((1R,3aS,7aR,E)-7a-methyl-1-((R)-1-((R)-3-methylpyrrolidin-1-yl)propan-2-yl)octahydro-4H-inden-4-ylidene)ethylidene)-4-methylenecyclohexane-1,3-diol]",,,,10 to 100 nM

# The remaining lines, values ahead:
Concentration in blood (mean ± SD) at brain Cmax [1],Concentration in brain (mean ± SD) at brain Cmax [1],Kp [1],EC50 (human VDR),SMILES
132 ± 15 nM,101 ± 8 pmol/g,0.77,1 to 10 nM,"C[C@H](CN1CCC[C@](C)(O)C1)[C@H]1CC[C@H]2/C(=C/C=C3C[C@@H](O)C[C@H](O)C3)CCC[C@]12C [Compound C039, (1R,3R)-5-(2-((1R,3aS,7aR,E)-1-((S)-1-((S)-3-hydroxy-3-methylpiperidin-1-yl)propan-2-yl)-7a-methyloctahydro-4H-inden-4-ylidene)ethylidene)cyclohexane-1,3-diol]"
510 ± 55 nM,239 ± 23 pmol/g,0.47,< 1 nM,C=C1/C(=C\C=C2/CCC[C@]3(C)[C@@H]([C@@H](C)CN4CCC(O)(C(F)(F)F)CC4)CC[C@@H]23)C[C@@H](O)[C@H](C)[C@@H]1O [Compound C006]
335 ± 85 nM,614 ± 153 pmol/g,1.83,1 to 10 nM,C=C1[C@H](O)CC(=C/C=C2\CCC[C@]3(C)[C@@H]([C@@H](C)CN4CCC(C(F)F)CC4)CC[C@@H]23)C[C@H]1O [Compound C019]
402 ± 38 nM,156 ± 14 pmol/g,0.39,10 to 100 nM,"C[C@H](CN1CCC(O)(C(F)(F)F)CC1)[C@H]1CC[C@H]2/C(=C/C=C3C[C@@H](O)C[C@H](O)C3)CCC[C@]12C [Compound C002, (1R,3R)-5-(2-((1R,3aS,7aR,E)-1-((S)-1-(4-hydroxy-4-(trifluoromethyl)piperidin-1-yl)propan-2-yl)-7a-methyloctahydro-4H-inden-4-ylidene)ethylidene)cyclohexane-1,3-diol]"
167 ± 29 nM,241 ± 21 pmol/g,1.44,10 to 100 nM,"C=C1[C@H](O)CC(=C/C=C2\CCC[C@]3(C)[C@@H]([C@H](C)CN4CCC(CC(F)F)CC4)CC[C@@H]23)C[C@H]1O [Compound C059, (1R,3R)-5-(2-((1R,3aS,7aR,E)-1-((S)-1-(4-(2,2-difluoroethyl)piperidin-1-yl)propan-2-yl)-7a-methyloctahydro-4H-inden-4-ylidene)ethylidene)-2-methylenecyclohexane-1,3-diol]"
,,,10 to 100 nM,"C[C@H](CCN1CCO[C@H](C(F)F)C1)[C@H]1CC[C@H]2/C(=C/C=C3C[C@@H](O)C[C@H](O)C3)CCC[C@]12C [Compound D034, (1R,3R)-5-(2-((1R,3aS,7aR,E)-1-((R)-4-((S)-2-(difluoromethyl)morpholino)butan-2-yl)-7a-methyloctahydro-4H-inden-4-ylidene)ethylidene)cyclohexane-1,3-diol]"
,,,1 to 10 nM,"C=C1/C(=C\C=C2/CCC[C@]3(C)[C@@H]([C@H](C)CN4CCCC(O)(C(F)(F)F)C4)CC[C@@H]23)C[C@@H](O)C[C@@H]1O (single isomer, unassigned) [Compound C030b]"
,,,1 to 10 nM,"C=C1[C@H](O)CC(=C/C=C2\CCC[C@]3(C)[C@@H]([C@H](C)CCN4CCO[C@H](C)C4)CC[C@@H]23)C[C@H]1O [Compound D040, (1R,3R)-5-(2-((1R,3aS,7aR,E)-7a-methyl-1-((R)-4-((R)-2-methylmorpholino)butan-2-yl)octahydro-4H-inden-4-ylidene)ethylidene)-2-methylenecyclohexane-1,3-diol]"
,,,100 to 1000 nM,"C=C1/C(=C\C=C2/CCC[C@]3(C)[C@@H]([C@@H](C)CN4CCC(C)(O)CC4)CC[C@@H]23)C[C@@H](O)C[C@@H]1O [Compound C029, (1R,3S,Z)-5-(2-((1R,3aS,7aR,E)-1-((R)-1-(4-hydroxy-4-methylpiperidin-1-yl)propan-2-yl)-7a-methyloctahydro-4H-inden-4-ylidene)ethylidene)-4-methylenecyclohexane-1,3-diol]"
,,,1 to 10 nM,"C=C1/C(=C\C=C2/CCC[C@]3(C)[C@@H]([C@H](C)CN4CCCC(O)(C(F)(F)F)C4)CC[C@@H]23)C[C@@H](O)[C@H](C)[C@@H]1O (single isomer, unassigned) [Compound C031b]"
